Laboratory results taken from patent US4098823A, “Monospiroalkyl derivatives of prostaglandins” (Miles Laboratories, Inc., priority 1977, dated 1978).

Experiments:
[1] = system: Human Platelet Aggregation; test: Inhibition of Human Platelet Aggregation; type: cell-based; settings: in vitro
Method: The ability of test compounds to inhibit platelet aggregation was determined by a modification of the turbidometric technique of Born (Nature, 194:927 [1962]). Blood was collected from human volunteers who had not ingested aspirin or aspirin-containing products within the preceding two weeks in heparinized containers and was allowed to settle for one (1) hour. The platelet rich plasma (prp) supernates were collected and cooled. Siliconized glassware was used throughout.
In a representative assay 1.9 ml of PRP and 0.2 ml of test compound at the appropriate concentrations (0.001 to 100 mcgm), or 0.2 ml of distilled water (control procedure) were placed in sample cuvettes. The cuvettes were placed in a 37° C incubation block for 15 minutes, and then in a spectrophotometer linked to a strip chart recorder. After 30-60 seconds, 0.2 ml of a solution, prepared by diluting a calf-skin collagen solution 1:9 with Tyrodes' Solution, was added to each cuvette. Platelet aggregation was evidenced by a decrease in optical density.
An ED50 value was then determined graphically.

Gastric Secretion = test: Effects on Gastric Secretion in the Rat; type: in vivo; settings: pylorus-ligated rat, subcutaneous, 2 x 1.5 mg/kg (total 3.0 mg/kg), 4 hours
Procedure, shortened: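 Rats (150-200 g, groups of six) fasted 48 h, pylorus ligated under ether. Compounds given s.c. in phosphate buffer pH 7.38 at 1.5 mg/kg immediately post-surgery and 2 h later (total 3.0 mg/kg). At 4 h, gastric volume and total acid (titration with 0.1 N NaOH, mEq) compared with vehicle controls by t-test.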

Femoral Blood Flow = test: Effects on Femoral Blood Flow in the Dog; type: in vivo; settings: anesthetized mongrel dog, intraarterial, 0.001 to 10 mcg
Method: The peripheral vasodilator or constrictor effects of these compounds were determined in mongrel dogs of either sex, weighing between 10 and 20 kg anesthestized intravenously with 35 mg/kg of sodium pentobarbital. An external iliac artery was dissected immediately above the femoral arch for a length of approximately 5 cm and a previously calibrated, non-connulating electromagnetic flowmeter sensor with a lumen between 2.5 and 3.5 mm was placed snugly around the vessel. Cannulas were placed in a branch of the artery arising distally to the location of the flowmeter sensor for intraarterial drug administrations, in the contralateral femoral artery for systemic blood pressure recordings and in the trachea for artificial respiration with room air. Femoral blood flow and systemic blood pressure were continously recorded with an electromagnetic flowmeter and pressure tranducer, respectively.
After an adequate control period, test compounds were injected intraarterially at one log-spaced doses ranging from 0.001 to 10 mcg., in a volume of 0.5 ml and at 5 to 10 minute intervals. Maximum changes in bloodflow, as well as any variations in blood pressure, were tabulated for each dose in absolute values (ml/min. and mmHg). The calculations were made taking as control values those existing immediately before administration of each dose. The direction of the observed change (plus for increase and minus for decrease) was also noted. The dose changing bloodflow by 100 ml/min (ED100 ml/min) was calculated graphically and was used for scoring activity as follows: […]

rat stomach fundus = test: Cascade Assay, stomach (smooth muscle stimulant effect); type: cell-based; settings: superfused, 50% of maximum (PGE1)
Procedure, shortened: (§1)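 Rabbit aortic strip (4 g tension), rat stomach fundus, rat colon and chick rectum (1 g) in cascade, superfused at 10 ml/min with 37° C Krebs containing cholinergic, adrenergic, serotonin and histamine blockers. Doses of 0.001–100,000 ng dripped on at 10–20 min intervals; maximal tension rise gave graphical ED50 per tissue.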

rat colon = test: Cascade Assay, colon (smooth muscle stimulant effect); type: cell-based; settings: superfused, 50% of maximum (PGF2α)
Procedure, shortened: as §1

rabbit aortic strip = test: Cascade Assay, aorta (smooth muscle stimulant effect); type: cell-based; settings: superfused, 50% of maximum (PGA2)
Procedure, shortened: as §1

SMILES: COC(=O)CCCCCC[C@H]1C(=O)C[C@@H](O)[C@@H]1/C=C/[C@H](O)C1CC2(CCC2)C1 [TR-4120, Methyl 7-{3R-hydroxy-5-oxo-2R-[3R-hydroxy-3-(spiro[3.3]hept-2-yl)-1E-propenyl]cyclopent-1R-yl}heptanoate]
- inhibition of aggregation of human platelets, in words [1]: inhibit aggregation of platelets
- Test B Activity Value (% decrease in acidity, inhibition of gastric secretion) (Gastric Secretion): 2 (26-50, significant)
- Test C Activity Value (ED100 ml/min, increase in femoral blood flow) (Femoral Blood Flow): 0 (>10.0)
- Test E Cascade Assay, Stomach, Activity Value (ED50) (rat stomach fundus): 0 (>10000)
- Test E Cascade Assay, Colon, Activity Value (ED50) (rat colon): 0 (>10000)
- Test E Cascade Assay, Aorta, Activity Value (ED50) (rabbit aortic strip): 0 (>10000)
